Measured values taken from patent publication US20180168208A1 (priority 2014, published 2018).
Where a name gives a salt, the structure may show the parent alone. Read-outs that look alike come from different tables or passages of the source.

Assays:
T1R1/T1R3 receptor = T1R1/T1R3 receptor (Felis catus, UniProt E3UMS2); experiment: cell-based; conditions: for Max resp % of Ala, +IMP (0.2 mM): relative to alanine; for Thres (mM), +IMP (0.2 mM): threshold concentration in the presence of 0.2 mM IMP
From the text: HEK293 cells that stably express T1R3 and inducibly express T1R1 were exposed to nucleotide derivatives alone to activate the umami receptor. Activation of the T1R1/T1R3 receptor was detected by a change in intracellular calcium levels using a calcium sensitive fluorescent dye. Cells that express T1R3 but not T1R1 were used as a control. A FLIPR® Tetra or a FlexStation® 3 was used for data capture.
(§1) HEK293 cells that stably express T1R3 and inducibly express T1R1 were exposed to nucleotide derivatives alone or in combination with one or more amino acids and/or one or more nucleotides to activate the umami receptor. Activation of the T1R1/T1R3 receptor was detected by a change in intracellular calcium levels using a calcium sensitive fluorescent dye and/or a luminescent reporter system. Cells that express T1R3 but not T1R1 were used as a control. A FLIPR® Tetra or a FlexStation® 3 was used for data capture.
HEK293 cells that stably express T1R3 and inducibly express T1R1 were exposed to transmembrane compounds alone or in combination with one or more amino acids and/or one or more nucleotides to activate the umami receptor. Activation of the T1R1/T1R3 receptor was detected by a change in intracellular calcium levels using a calcium sensitive fluorescent dye. Cells that express T1R3 but not T1R1 were used as a control. A FLIPR® Tetra or a FlexStation® 3 was used for data capture.
In each experiment, serial dilutions of up to 10 mM of the transmembrane compound were added to the T1R1/T1R3-expressing cells.

cat T1R1/T1R3 receptor = molecular target: T1, cat T1R1/T1R3 receptor (Felis catus, UniProt A0ABI7Z2I4); experiment: cell-based; conditions: for function as activators of T1R1/T1R3 (in words): in the presence of alanine
T1 sequence (A0ABI7Z2I4 171-420): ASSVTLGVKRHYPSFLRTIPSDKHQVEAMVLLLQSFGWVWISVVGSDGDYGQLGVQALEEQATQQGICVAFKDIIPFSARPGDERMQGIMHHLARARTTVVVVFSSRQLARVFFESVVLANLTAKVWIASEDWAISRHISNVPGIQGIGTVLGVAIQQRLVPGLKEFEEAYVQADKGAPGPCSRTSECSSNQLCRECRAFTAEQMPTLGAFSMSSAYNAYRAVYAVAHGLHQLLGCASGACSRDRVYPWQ
T1 sequence (Q49KI5 25-865 E206Q/N523D/F654L partner): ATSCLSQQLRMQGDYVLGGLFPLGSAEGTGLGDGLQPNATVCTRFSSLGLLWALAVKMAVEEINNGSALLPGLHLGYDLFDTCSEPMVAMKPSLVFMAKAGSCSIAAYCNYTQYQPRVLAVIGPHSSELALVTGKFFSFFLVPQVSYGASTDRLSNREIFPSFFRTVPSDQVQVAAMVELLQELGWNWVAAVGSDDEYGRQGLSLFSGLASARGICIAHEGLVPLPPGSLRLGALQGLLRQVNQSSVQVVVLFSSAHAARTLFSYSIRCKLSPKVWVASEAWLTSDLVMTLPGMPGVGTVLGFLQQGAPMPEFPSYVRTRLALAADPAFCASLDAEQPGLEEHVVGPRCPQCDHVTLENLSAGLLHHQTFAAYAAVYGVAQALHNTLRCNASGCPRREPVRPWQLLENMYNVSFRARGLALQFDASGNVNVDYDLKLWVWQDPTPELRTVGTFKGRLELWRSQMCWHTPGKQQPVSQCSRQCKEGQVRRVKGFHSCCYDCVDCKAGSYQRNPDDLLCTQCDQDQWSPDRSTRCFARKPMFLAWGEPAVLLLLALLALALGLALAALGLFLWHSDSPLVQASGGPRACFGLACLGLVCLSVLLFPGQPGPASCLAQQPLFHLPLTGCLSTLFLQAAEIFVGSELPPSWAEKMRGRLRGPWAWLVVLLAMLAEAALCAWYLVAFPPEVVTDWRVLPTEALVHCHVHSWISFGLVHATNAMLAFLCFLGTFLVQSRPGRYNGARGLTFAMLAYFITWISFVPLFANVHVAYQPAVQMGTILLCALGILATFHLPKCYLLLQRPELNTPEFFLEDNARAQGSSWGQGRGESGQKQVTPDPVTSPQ
From the text: as §1

[1] = EC50 (mM), +Alanine (20 mM) + IMP (0.2 mM), in the presence of 20 mM alanine and 0.2 mM IMP
[2] = EC50 (mM), +IMP (0.2 mM), in the presence of 0.2 mM IMP
[3] = T1R1/T1R3 EC50 +0.2 mM IMP, +0.2 mM IMP
[4] = T1R1/T1R3 EC50 +20 mM L-alanine, +20 mM L-alanine
[5] = alone in buffer, read-out: T1R1/T1R3 EC50 alone in buffer
[6] = compound alone in buffer, read-out: EC50 (mM), +buffer (alone)

| SMILES | Max resp % of IMP, +Alanine (20 mM) (T1R1/T1R3 receptor) | Thres (mM), +Alanine (20 mM) (T1R1/T1R3 receptor) | Max resp % of Ala, +IMP (0.2 mM) (T1R1/T1R3 receptor; in the presence of 0.2 mM IMP) | Thres (mM), +IMP (0.2 mM) (T1R1/T1R3 receptor) | Activity (cat T1R1/T1R3 receptor) | Threshold (cat T1R1/T1R3 receptor) | other results |
| --- | --- | --- | --- | --- | --- | --- | --- |
| O=C(NCCc1ccccc1)c1ccc2c(c1)OCO2 [N-phenethylbenzo[d][1,3]dioxole-5-carboxamide] | 11.3% | 1.0 mM | 92.0% | 0.01 mM | – | – | EC50 (T1R1/T1R3 receptor; [1]): 0.03 mM; EC50 (T1R1/T1R3 receptor; [2]): 0.04 mM; EC50 (T1R1/T1R3 receptor; [3]): 0.04 ± 0.01 mM; EC50 (T1R1/T1R3 receptor; [4]): > 1 mM; EC50 (T1R1/T1R3 receptor; [5]): 0.12 ± 0.07 mM; EC50 (T1R1/T1R3 receptor; [6]): 0.12 mM |
| Nc1nc2c(ncn2[C@@H]2O[C@H](COP(=O)(O)OP(=O)(O)O)[C@@H](O)[C@H]2O)c(=S)[nH]1 [6-Thioguanosine-5′-O-diphosphate] | 152.8% | 0.03 mM | 9.3% | – | – | – | EC50 (T1R1/T1R3 receptor; [1]): 0.28 mM; Max resp ΔF/F, +IMP (0.2 mM) (T1R1/T1R3 receptor; in the presence of 0.2 mM IMP): 0.0720 ΔF/F |
| O=C(O)C1CCCCC1C(=O)Nc1cc(Cl)cc(Cl)c1 (centres unmarked) | – | – | – | – | – | – | EC50 (T1R1/T1R3 receptor): 0.49 ± 0.01 mM; EC50 (T1R1/T1R3 receptor; [3]): 0.18 ± 0.01 mM; EC50 (T1R1/T1R3 receptor; [5]): 0.37 ± 0.05 mM |
| O=C(NCCc1ccccc1)c1ccccc1 [N-phenethylbenzamide] | 20.4% | 0.6 mM | 126.0% | 0.01 mM | – | – | EC50 (T1R1/T1R3 receptor; [1]): 0.09 mM; EC50 (T1R1/T1R3 receptor; EC50 (mM), +Alanine (20 mM), in the presence of 20 mM alanine): > 1 mM; EC50 (T1R1/T1R3 receptor; [2]): 0.12 mM; EC50 (T1R1/T1R3 receptor; [3]): 0.12 ± 0.03 mM; EC50 (T1R1/T1R3 receptor; [4]): > 1 mM; EC50 (T1R1/T1R3 receptor; [5]): 0.33 ± 0.01 mM; EC50 (T1R1/T1R3 receptor; [6]): 0.33 mM; Max resp ΔF/F, +IMP (0.2 mM) (T1R1/T1R3 receptor; in the presence of 0.2 mM IMP): 0.9800 ΔF/F |
| O=C(NCCCCNC(=O)c1cccnc1)c1cccnc1 [N,N′-(butane-1,4-diyl)dinicotinamide] | 9.5% | 1.0 mM | 49.2% | 0.1 mM | – | – | – |
| O=C(NCCc1ccccc1)c1cccnc1 [N-phenethylnicotinamide] | 83.6% | 0.1 mM | 149.5% | 0.03 mM | – | – | EC50 (T1R1/T1R3 receptor; [1]): 0.22 mM; EC50 (T1R1/T1R3 receptor; [2]): 0.35 mM; EC50 (T1R1/T1R3 receptor; [3]): 0.35 ± 0.1 mM; EC50 (T1R1/T1R3 receptor; [5]): 0.37 ± 0.02 mM; EC50 (T1R1/T1R3 receptor; [6]): 0.37 mM |
| O=C(O)C1CCCCC1C(=O)Nc1cc(Cl)cc(Cl)c1 (centres unmarked) [2-((3,5-dichlorophenyl)carbamoyl)cyclohexanecarboxylic acid] | 163.5% | 0.1 mM | 157.9% | 0.03 mM | – | – | – |
| CCOC(=O)NC(=O)C(c1ccccc1)c1ccccc1 [Ro 01-6128, reference compound] | 74.8% | 0.3 mM | 199.7% | 0.01 mM | – | – | Activity (T1R1/T1R3 receptor; overall call: active or N/A (not active) on T1R1/T1R3): active |
| Nc1ncnc2c1ncn2C1CC(O)C(COP(O)(O)=S)O1 (centres unmarked) [2′-Deoxyadenosine-5′-O-monophosphorothioate] | – | – | – | – | active | 0.015 mM | – |
| NC(=O)c1ncn(C2OC(COP(=O)(O)O)C(O)C2O)n1 (centres unmarked) [Ribavirin 5′-Monophosphate] | – | – | – | – | active | 0.175 mM | – |
| Nc1nc2c(nc(Br)n2[C@@H]2O[C@H](COP(=O)(O)O)[C@@H](O)[C@H]2O)c(=O)[nH]1 [8-Bromoguanosine-5′-O-monophosphate] | – | – | – | – | active | 1 mM | Max resp. (ΔF/F) (cat T1R1/T1R3 receptor): 0.375 ΔF/F; Max. resp. % of IMP (cat T1R1/T1R3 receptor): 30.2 % of IMP |
| Nc1nc2c(ncn2[C@@H]2O[C@H](COP(=O)(O)O)[C@@H](O)[C@H]2O)c(=S)[nH]1 [6-thioguanosine-5′-O-monophosphate] | – | – | – | – | – | 0.0002 mM | EC50 (cat T1R1/T1R3 receptor): 0.9 µM; function as activators of T1R1/T1R3 (in words) (cat T1R1/T1R3 receptor): activators of T1R1/T1R3 |
| Nc1ncnc2c1ncn2C1OC(COP(=O)(O)O)C(OP(=O)(O)O)C1O (centres unmarked) [Adenosine 3′,5′-diphosphate sodium salt, adenosine 3′, 5′ diphosphate sodium salt] | – | – | – | – | active | 0.00025 mM | – |
| Nc1nc2c(ncn2[C@@H]2O[C@H](COP(O)(O)=S)[C@@H](O)[C@H]2O)c(=O)[nH]1 [Guanosine-5′-monophosphorothioate] | – | – | – | – | active | 0.0025 mM | EC50 (cat T1R1/T1R3 receptor): 10 µM; Max resp. (ΔF/F) (cat T1R1/T1R3 receptor): 1.29 ΔF/F; Max. resp. % of IMP (cat T1R1/T1R3 receptor): 103.8 % of IMP; function as activators of T1R1/T1R3 (in words) (cat T1R1/T1R3 receptor): activators of T1R1/T1R3 |
| Nc1nc2c(ncn2[C@@H]2O[C@H](COP(=O)(O)O)[C@@H](O)[C@H]2O)c(=S)[nH]1 [6-Thiogaunosine-5′-O-monophosphate] | – | – | – | – | – | – | Max resp. (ΔF/F) (cat T1R1/T1R3 receptor): 1.3614 ΔF/F; Max. resp. % of IMP (cat T1R1/T1R3 receptor): 140.6 % of IMP |
| Nc1ncnc2c1ncn2[C@H]1C[C@H](O)[C@@H](COP(=O)(O)O)O1 [2′-Deoxyadenosine 5′-monophosphate] | – | – | – | – | active | 0.035 mM | EC50 (cat T1R1/T1R3 receptor): 140 µM |
| O=c1ccn([C@H]2O[C@@H](COP(=O)(O)O)[C@H](O)[C@@H]2O)c(=O)[nH]1 (stereo in doubt) [uridine monophosphate] | – | – | – | – | active | 3.000 mM | EC50 (cat T1R1/T1R3 receptor): > 30000 µM |
| Nc1ncnc2c1ncn2C1OC(COP(=O)(O)OS(=O)(=O)O)C(O)C1O (centres unmarked) [Adenosine 5′-phosphosulfate sodium salt, Adenosine 5′-phosphosulfate] | – | – | – | – | – | 0.008 mM | – |
| O=P(O)(O)OC[C@H]1O[C@@H](n2cnc3c2ncn2ccnc32)[C@H](O)[C@@H]1O [1,N6-Ethenoadenosine-5′-O-monophosphate] | – | – | – | – | – | – | Activity (cat T1R1/T1R3 receptor; +Alanine (20 mM)): active |
| O=c1[nH]c(=O)c2ncn([C@@H]3O[C@H](COP(=O)(O)O)[C@@H](O)[C@H]3O)c2[nH]1 [xanthosine monophosphate] | – | – | – | – | active | 0.025 mM | – |
